In a melting point compilation (Tetko et al.; mined from patent text by program, amines drawn as free bases though some values may be those of a salt):

`Cc1cc(Br)nc2c1OCC(=O)N2` gave a melting point of 174 °C. With `c1ccc(C(c2ccccc2)(c2ccns2)n2cncn2)cc1` the melting point was 235 to 240 °C. With `COc1cc(OC)nc(Oc2cccc(Oc3nc(OC)cc(OC)n3)c2CO)n1` the melting point was 122 °C. `O=CC=C(Cl)c1cccc([N+](=O)[O-])c1` showed a melting point of 83 °C. For `Cc1sc(C(=O)O)c2c1-c1c(cnn1Cc1ccccc1)CC2`, the melting point was 231 to 232 °C. In the case of `COC(=O)c1ccc(C(=O)NCC(C)C)c([N+](=O)[O-])c1`, the melting point was 90 to 91 °C. `CCN(CC)C1=NN(Nc2ccc3nc(C)cc(N)c3c2)NC(Cl)=C1` showed a melting point of 120 °C. Molecule `CCCN1C(=O)C2(CC)CC(c3ccc([N+](=O)[O-])cc3)(C2)C1=O` has a melting point of 121 to 122 °C. `O=c1c2ccc(Cl)cc2[nH]c2c(O)nn(-c3ccc(OC(F)(F)F)cc3)c(=O)c12` gave a melting point of 320 to 322 °C. With `C=CCOC(=O)C1N2C(=O)C(NC(=O)CC(=O)OCC)C2S(=O)(=O)C1(C)C` (configuration not stated) the melting point was 114 to 115 °C. `CC(C)(C)OC(=O)n1ccc(-c2ccc(F)cc2)c1-c1ccc(S(C)(=O)=O)cc1` showed a melting point of 262 °C. `Cc1nc(Br)n(C)c1-c1nc(C2CC2)no1` gave a melting point of 81 °C. Work on `C[N+]1([O-])CC(CO)(c2ccccn2)C(=O)c2ccccc21` (configuration not stated) yielded a melting point of 198 to 200 °C. Molecule `Cc1c(F)c(F)cc2c(=O)c(C(=O)O)cn(-c3cc(O)c(F)cc3F)c12` has a melting point of 270 to 278 °C. For `CCC(=O)N1Cc2cn[nH]c2-c2ccccc21`, the melting point was 130 to 131 °C. Work on `CC(O)c1ccc2occ(-c3nnn[nH]3)c(=O)c2c1` (configuration not stated) yielded a melting point of 234 to 236 °C. With `O=C1c2ccccc2C(=O)N1Cn1nnn(-c2ccccc2)c1=S` the melting point was 130 to 134 °C. Work on `CC(=O)Nc1cc(C(=O)OC2OC(COC(=O)c3ccccc3)C(OC3OC4COC(c5ccncc5)OC4C(O)C3O)C(O)C2O)ccc1Cl` (configuration not stated) yielded a melting point of 260 to 262 °C. With `CC1COCc2nc3c(N)nc4cc(CCC(=O)N(C)C)ccc4c3n21` (configuration not stated) the melting point was 235 to 237 °C. `Cc1cc(NCCO)c2[nH]nc(-c3ccc(Cl)cc3)c2n1` showed a melting point of 222 to 224 °C. Molecule `CC(=O)Nc1cccc(NC(=O)C=C2CC(C(=O)O)Nc3cc(Cl)cc(Cl)c32)c1` (racemic) has a melting point of 190 to 193 °C. Molecule `O=C(N1CC1)C(F)(F)C(O)(Cn1cncn1)c1ccc(F)cc1F` (configuration not stated) has a melting point of 87.5 to 88 °C. Molecule `O=C(O)CCCCCCc1ccc(CCNC(=O)c2ccc(Cl)cc2)cc1` has a melting point of 140 to 143 °C. In the case of `Cc1oc(C=Cc2cccc(C(F)(F)F)c2)nc1C(=O)O`, the melting point was 204 to 205 °C. `CCNc1nc(-c2ccc(F)c3ccccc23)cc(C(C)C)n1` showed a melting point of 77 to 78 °C. For `COc1cc(-c2cnc3[nH]cc(C(=O)C(C)(C)OC)c3n2)cc(OC)c1OC`, the melting point was 238 to 239 °C. With `Oc1ccc2cc(-c3nc4cc(O)ccc4o3)ccc2c1` the melting point was 288 to 290 °C. With `CCOC(=O)CC(C)NC(=O)c1ccc(N2CCN(c3ccncc3)CC2)cc1` (configuration not stated) the melting point was 130 to 132 °C. For `c1ccc(COc2ccc(-c3nc4cccc(OCc5ccccc5)c4[nH]3)cc2C23CC4CC(CC(C4)C2)C3)cc1`, the melting point was 109 to 111 °C. Work on `COc1cc(C=CC(=O)c2c(OCC=C(C)C)ccc3c(C)cc(=O)oc23)cc(OC)c1OC` yielded a melting point of 148 to 150 °C. Work on `CCCCC(C(=O)O)n1cncn1` (configuration not stated) yielded a melting point of 141 to 143 °C. Molecule `COc1ccc(NC(=O)C2CCCCn3c2nc(-c2ccncn2)cc3=O)c(OC)n1` (racemic) has a melting point of 231 to 233 °C. `Nc1nc(NCCNCC(O)COc2ccccc2)c2[nH]cnc2n1` (configuration not stated) showed a melting point of 169 to 171 °C. Molecule `COc1cc(C(=O)O)ccc1Cn1nc(OC)c2ccc(NC(=O)OC3CCCC3)cc21` has a melting point of 199 to 200 °C. Work on `O=C(Nc1ccc2cc(CN3CCCC3)cnc2c1)N1CCC(c2ccccc2)CC1` yielded a melting point of 222 to 224 °C. `CCCCCCCCCCCCCC(O)c1nc2ncccc2o1` (configuration not stated) gave a melting point of 52 to 54 °C. `CC1(C)CCC(C)(C)c2cc(C(N)C(=O)Nc3ccc(C(=O)O)cc3)ccc21` (configuration not stated) showed a melting point of 203 to 204 °C. Molecule `CCOC(=O)C1=C(C)Nc2c(C(=O)O)ncn2C1c1cccc([N+](=O)[O-])c1` (configuration not stated) has a melting point of 222 °C. Work on `O=C(O)CCC(=O)CCC(=O)Nc1ccc(Cc2ccc(NC(=O)CCC(=O)CCC(=O)O)cc2)cc1` yielded a melting point of 158 to 160 °C. For `CC(C)Nc1nc(Cl)nc(NCCS)n1`, the melting point was 141 to 146 °C. Work on `Cc1cc(NC(=O)N(C)C)cc(C)c1S(=O)(=O)C[N+](=O)[O-]` yielded a melting point of 205 to 206 °C. `COC(=O)c1ccc2c(c1)Sc1cc3c(cc1CC2)CCC3` gave a melting point of 110 to 111 °C. Molecule `CCCCNC(=O)OCCCC(=O)c1ccccc1` has a melting point of 52 to 58 °C. Work on `O=C1Oc2ccccc2CN1C1CCN(Cc2ccccc2)CC1` yielded a melting point of 106 to 107 °C. `CCC1(C)CC(=O)C(C(=O)Nc2ccc(Cl)c(C(F)(F)F)c2)C(=O)C1` (configuration not stated) gave a melting point of 87 to 88 °C. `CCOC(=O)C(=O)Nc1ccc(C(=O)O)cc1NC(=O)C(=O)OCC` showed a melting point of 251 °C. Work on `C#Cc1ccc2nc(Cl)c(S(=O)(=O)N=CN(CC(C)C)CC(C)C)n2n1` yielded a melting point of 166 to 168 °C. Molecule `Cn1c(C(F)(F)F)ccc(-c2c(F)cc(Cl)c3oc(C(=O)O)cc23)c1=O` has a melting point of 233 to 235 °C. For `C[C@@H]1[C@H](c2ccccc2)OC(=O)N1C(=O)CCC(F)(F)F`, the melting point was 93 to 95 °C. For `Nc1ncc(-c2cccc3ccccc23)o1`, the melting point was 155 to 162 °C. `OC1CSC(Oc2ccccc2-c2nc3ccccc3s2)C(O)C1O` (configuration not stated) gave a melting point of 196 °C. For `CC(C)(O)c1cc(Br)cnc1N`, the melting point was 107 to 108 °C. Molecule `O=C(c1ccc([N+](=O)[O-])cc1)N1CCc2cn[nH]c2-c2ncccc21` has a melting point of 255 to 256 °C. With `O=C(NC1CCCCC1O)c1ccccc1` (configuration not stated) the melting point was 172 to 173 °C. For `CCOC(=O)c1cc2c(Cl)ccc(N(C)S(=O)(=O)c3cccs3)c2n1COC`, the melting point was 137 to 138 °C. `COC(=O)CCCOc1ccc2ccc(O)cc2c1` showed a melting point of 122 to 125 °C. In the case of `COc1ccc(-c2cccc(O)c2)cc1`, the melting point was 76.5 to 78 °C. With `O=C1NCCn2c1cc1ccccc12` the melting point was 228 to 230 °C. In the case of `CCOC(=O)C1=C(C)NC(CF)=C(C(=O)OCC)C1c1ccccc1C(F)(F)F` (configuration not stated), the melting point was 84 to 86 °C. With `CC(C)c1c(-c2ccccc2)[nH]c2nccnc12` the melting point was 216 to 218 °C. `Cc1cc(C)n2nc(S(=O)(=O)Nc3c(Cl)cccc3Cl)c(C#N)c2n1` showed a melting point of 280 to 285 °C. In the case of `CC(C)Oc1cc(/C=C/S(=O)(=O)NC(=O)OC(C)(C)C)n(Cc2ccc(Cl)cc2Cl)n1`, the melting point was 152 to 153 °C. `CC(C)(C)OC(=O)N1CCC2(CC1)CC(c1ccc(CNS(C)(=O)=O)c(F)c1)=NO2` gave a melting point of 178 to 182 °C. In the case of `Cc1cn(-c2cccc(N)c2)cn1`, the melting point was 117 to 119 °C. With `CCCCc1nc(C(C)(O)CC)c(C(=O)O)n1Cc1ccc(-c2ccccc2-c2nnn[nH]2)cc1` (configuration not stated) the melting point was 152 to 154 °C. In the case of `Nc1nc(COCC(F)(F)F)nc2nccnc12`, the melting point was 145 to 147 °C. Molecule `COC(=O)C(C(=O)Nc1ccc(F)cc1)=C1SCS1` has a melting point of 141 to 142 °C. With `C[C@H]1Cc2c(F)c(F)cc3c(=O)c(C(=O)O)cn1c23` the melting point was 279 to 283 °C. `Cc1c(-c2ccccc2Cl)sc2nc(N)[nH]c(=O)c12` showed a melting point of 334 to 336 °C. `CC1Cc2cc(S(N)(=O)=O)cc(C(=O)O)c2O1` (configuration not stated) showed a melting point of 245 to 246 °C. `COCc1nc(C(C)(C)O)c(C(=O)O)n1Cc1ccc(-c2ccccc2C(=O)O)cc1` gave a melting point of 164 to 165 °C. Molecule `CC(=O)Oc1ccc(-c2cnc(C)[nH]c2=O)cc1OC(C)=O` has a melting point of 178 to 179 °C. `CC(C)(C)OC(=O)[C@@H](N)Cc1ccc(O)c(C(C)(C)C)c1` showed a melting point of 43 to 52 °C. `COC(=O)c1cc2c3cc(C)ccc3n(C)c2s1` gave a melting point of 152 to 155 °C. For `O=[N+]([O-])c1ccc(C2CCc3c(CCCCCCO)n[nH]c3C2)cc1` (configuration not stated), the melting point was 69 to 70 °C. With `COc1ccc2c(=O)n(S(=O)(=O)c3ccc(Cl)cc3)c(=O)[nH]c2c1` the melting point was 205 to 206 °C. `O=[N+]([O-])c1ccc(-c2ccc(I)cc2C(F)(F)F)c(C(F)(F)F)c1` showed a melting point of 67 to 68 °C. Molecule `Cc1cc2c(-c3cccc(C=O)c3)c(CC(=O)O)c(=O)oc2cc1Cl` has a melting point of 230 to 232 °C. `Nc1ccc2cccc(Oc3cc(-c4ccc(C(F)(F)F)cc4)ccn3)c2n1` showed a melting point of 196 to 200 °C. `CC(c1cccnn1)c1cccc(Cl)c1Cl` (configuration not stated) gave a melting point of 96 to 98 °C. In the case of `CCOC(=O)C(NC(=O)CCl)N(C(=O)CCl)c1cscn1` (configuration not stated), the melting point was 102 to 104 °C. For `Cc1cc(C)c(Nc2nc(C)ccc2S(=O)(=O)c2ccc(OCCCC#N)cc2)c(C)c1`, the melting point was 160 to 162 °C. For `O=C(O)c1ccc2c(c1)OC(c1cccc(Cl)c1)(c1cccc(Cl)c1)O2`, the melting point was 166 °C. For `CN(Cc1ccccc1Sc1nc2ccccc2[nH]1)c1ccccc1`, the melting point was 168 to 169 °C. For `O=C1CCCN1C(=O)c1ccc(OCc2ccccc2)cc1`, the melting point was 115 to 117 °C. Work on `CNC(=O)c1cc(Oc2ccc(NC(=O)Nc3ccc4c(cnn4C)c3)c(F)c2)ccn1` yielded a melting point of 231 to 234 °C. In the case of `O=C(NC1(CO)NCC(O)C(O)C1O)c1ccccc1` (configuration not stated), the melting point was 154 to 156 °C. Work on `CCCC(Oc1ccccc1)C(=O)NCCO[N+](=O)[O-]` (configuration not stated) yielded a melting point of 68 to 70 °C. Work on `CSc1nc(N)n(-c2ccccc2Oc2ccc(C)cc2O)n1` yielded a melting point of 41 to 42 °C. In the case of `FC(F)(F)C(F)(F)C(F)(F)COc1ccnc(CSc2nc3cscc3[nH]2)c1`, the melting point was 117 °C. In the case of `O=C(Nc1nc2ccccc2n1CCCN1CCNCC1)c1ccc(C(F)(F)F)cc1`, the melting point was 184 to 185 °C. In the case of `Cc1nc(NCCc2ccc(OCc3nn[nH]n3)cc2)c2cc(C)sc2n1`, the melting point was 205 °C. For `CCC12CCC3C4CCCC=C4CCC3C1CCC2=O` (configuration not stated), the melting point was 101 to 102 °C. Molecule `CS(=O)(=O)c1ccc(-c2cc(C(=O)CCCO[N+](=O)[O-])nn2-c2ccc(C(F)(F)F)cc2)cc1` has a melting point of 152 to 154 °C. `CCOC(=O)Cc1csc(-c2ncccc2O)n1` showed a melting point of 85.5 to 86.5 °C. `COC(OC)c1cnc(-c2ccccc2)nc1N` gave a melting point of 116 to 118 °C. Work on `CC(=O)NCC1CN(Cc2ccc(F)cc2)CCO1` (configuration not stated) yielded a melting point of 120 to 122 °C. For `c1ccc(CN2CCC(CCc3noc4cc(N5CCOCC5)ccc34)CC2)cc1`, the melting point was 129 to 130 °C. `O=C(O)c1ccc2c(c1)Sc1ccc(F)cc1C(=O)C2` showed a melting point of 289 to 291 °C. `O=c1[nH]c2cc(Cl)ccc2n1CCCO` showed a melting point of 149 °C. With `CC(C)(C)OC(=O)CC[C@@H](NC(=O)OCc1ccccc1)c1nnn[nH]1` the melting point was 99 to 101 °C. Work on `Cc1noc(-c2ncn3c2[C@@H]2CCCN2C(=O)c2c(Cl)cccc2-3)n1` yielded a melting point of 230 to 231 °C.
